Data taken from patent publication US5679701A (priority 1996, dated 1997).
Values joined by “and” are separate entries in the source; they are usually repeats but may differ in a detail not shown here. Identical values can stand only once. “Also recorded” adds a separate entry of the source. Like-named read-outs stand apart in the source and are kept apart here.

What was measured:
[1] = target: T1, ryanodine receptor (skeletal sarcoplasmic reticulum membrane vesicles) (Oryctolagus cuniculus, UniProt P11716); experiment: biochemical; format: binding; details: for IC50: read-out: IC50; for Kd: read-out: KD
T1 construct: skeletal sarcoplasmic reticulum membrane vesicles; from tissue; host or cells: skeletal muscle sarcoplasmic reticulum membrane vesicles
T1 sequence (P11716 whole entry): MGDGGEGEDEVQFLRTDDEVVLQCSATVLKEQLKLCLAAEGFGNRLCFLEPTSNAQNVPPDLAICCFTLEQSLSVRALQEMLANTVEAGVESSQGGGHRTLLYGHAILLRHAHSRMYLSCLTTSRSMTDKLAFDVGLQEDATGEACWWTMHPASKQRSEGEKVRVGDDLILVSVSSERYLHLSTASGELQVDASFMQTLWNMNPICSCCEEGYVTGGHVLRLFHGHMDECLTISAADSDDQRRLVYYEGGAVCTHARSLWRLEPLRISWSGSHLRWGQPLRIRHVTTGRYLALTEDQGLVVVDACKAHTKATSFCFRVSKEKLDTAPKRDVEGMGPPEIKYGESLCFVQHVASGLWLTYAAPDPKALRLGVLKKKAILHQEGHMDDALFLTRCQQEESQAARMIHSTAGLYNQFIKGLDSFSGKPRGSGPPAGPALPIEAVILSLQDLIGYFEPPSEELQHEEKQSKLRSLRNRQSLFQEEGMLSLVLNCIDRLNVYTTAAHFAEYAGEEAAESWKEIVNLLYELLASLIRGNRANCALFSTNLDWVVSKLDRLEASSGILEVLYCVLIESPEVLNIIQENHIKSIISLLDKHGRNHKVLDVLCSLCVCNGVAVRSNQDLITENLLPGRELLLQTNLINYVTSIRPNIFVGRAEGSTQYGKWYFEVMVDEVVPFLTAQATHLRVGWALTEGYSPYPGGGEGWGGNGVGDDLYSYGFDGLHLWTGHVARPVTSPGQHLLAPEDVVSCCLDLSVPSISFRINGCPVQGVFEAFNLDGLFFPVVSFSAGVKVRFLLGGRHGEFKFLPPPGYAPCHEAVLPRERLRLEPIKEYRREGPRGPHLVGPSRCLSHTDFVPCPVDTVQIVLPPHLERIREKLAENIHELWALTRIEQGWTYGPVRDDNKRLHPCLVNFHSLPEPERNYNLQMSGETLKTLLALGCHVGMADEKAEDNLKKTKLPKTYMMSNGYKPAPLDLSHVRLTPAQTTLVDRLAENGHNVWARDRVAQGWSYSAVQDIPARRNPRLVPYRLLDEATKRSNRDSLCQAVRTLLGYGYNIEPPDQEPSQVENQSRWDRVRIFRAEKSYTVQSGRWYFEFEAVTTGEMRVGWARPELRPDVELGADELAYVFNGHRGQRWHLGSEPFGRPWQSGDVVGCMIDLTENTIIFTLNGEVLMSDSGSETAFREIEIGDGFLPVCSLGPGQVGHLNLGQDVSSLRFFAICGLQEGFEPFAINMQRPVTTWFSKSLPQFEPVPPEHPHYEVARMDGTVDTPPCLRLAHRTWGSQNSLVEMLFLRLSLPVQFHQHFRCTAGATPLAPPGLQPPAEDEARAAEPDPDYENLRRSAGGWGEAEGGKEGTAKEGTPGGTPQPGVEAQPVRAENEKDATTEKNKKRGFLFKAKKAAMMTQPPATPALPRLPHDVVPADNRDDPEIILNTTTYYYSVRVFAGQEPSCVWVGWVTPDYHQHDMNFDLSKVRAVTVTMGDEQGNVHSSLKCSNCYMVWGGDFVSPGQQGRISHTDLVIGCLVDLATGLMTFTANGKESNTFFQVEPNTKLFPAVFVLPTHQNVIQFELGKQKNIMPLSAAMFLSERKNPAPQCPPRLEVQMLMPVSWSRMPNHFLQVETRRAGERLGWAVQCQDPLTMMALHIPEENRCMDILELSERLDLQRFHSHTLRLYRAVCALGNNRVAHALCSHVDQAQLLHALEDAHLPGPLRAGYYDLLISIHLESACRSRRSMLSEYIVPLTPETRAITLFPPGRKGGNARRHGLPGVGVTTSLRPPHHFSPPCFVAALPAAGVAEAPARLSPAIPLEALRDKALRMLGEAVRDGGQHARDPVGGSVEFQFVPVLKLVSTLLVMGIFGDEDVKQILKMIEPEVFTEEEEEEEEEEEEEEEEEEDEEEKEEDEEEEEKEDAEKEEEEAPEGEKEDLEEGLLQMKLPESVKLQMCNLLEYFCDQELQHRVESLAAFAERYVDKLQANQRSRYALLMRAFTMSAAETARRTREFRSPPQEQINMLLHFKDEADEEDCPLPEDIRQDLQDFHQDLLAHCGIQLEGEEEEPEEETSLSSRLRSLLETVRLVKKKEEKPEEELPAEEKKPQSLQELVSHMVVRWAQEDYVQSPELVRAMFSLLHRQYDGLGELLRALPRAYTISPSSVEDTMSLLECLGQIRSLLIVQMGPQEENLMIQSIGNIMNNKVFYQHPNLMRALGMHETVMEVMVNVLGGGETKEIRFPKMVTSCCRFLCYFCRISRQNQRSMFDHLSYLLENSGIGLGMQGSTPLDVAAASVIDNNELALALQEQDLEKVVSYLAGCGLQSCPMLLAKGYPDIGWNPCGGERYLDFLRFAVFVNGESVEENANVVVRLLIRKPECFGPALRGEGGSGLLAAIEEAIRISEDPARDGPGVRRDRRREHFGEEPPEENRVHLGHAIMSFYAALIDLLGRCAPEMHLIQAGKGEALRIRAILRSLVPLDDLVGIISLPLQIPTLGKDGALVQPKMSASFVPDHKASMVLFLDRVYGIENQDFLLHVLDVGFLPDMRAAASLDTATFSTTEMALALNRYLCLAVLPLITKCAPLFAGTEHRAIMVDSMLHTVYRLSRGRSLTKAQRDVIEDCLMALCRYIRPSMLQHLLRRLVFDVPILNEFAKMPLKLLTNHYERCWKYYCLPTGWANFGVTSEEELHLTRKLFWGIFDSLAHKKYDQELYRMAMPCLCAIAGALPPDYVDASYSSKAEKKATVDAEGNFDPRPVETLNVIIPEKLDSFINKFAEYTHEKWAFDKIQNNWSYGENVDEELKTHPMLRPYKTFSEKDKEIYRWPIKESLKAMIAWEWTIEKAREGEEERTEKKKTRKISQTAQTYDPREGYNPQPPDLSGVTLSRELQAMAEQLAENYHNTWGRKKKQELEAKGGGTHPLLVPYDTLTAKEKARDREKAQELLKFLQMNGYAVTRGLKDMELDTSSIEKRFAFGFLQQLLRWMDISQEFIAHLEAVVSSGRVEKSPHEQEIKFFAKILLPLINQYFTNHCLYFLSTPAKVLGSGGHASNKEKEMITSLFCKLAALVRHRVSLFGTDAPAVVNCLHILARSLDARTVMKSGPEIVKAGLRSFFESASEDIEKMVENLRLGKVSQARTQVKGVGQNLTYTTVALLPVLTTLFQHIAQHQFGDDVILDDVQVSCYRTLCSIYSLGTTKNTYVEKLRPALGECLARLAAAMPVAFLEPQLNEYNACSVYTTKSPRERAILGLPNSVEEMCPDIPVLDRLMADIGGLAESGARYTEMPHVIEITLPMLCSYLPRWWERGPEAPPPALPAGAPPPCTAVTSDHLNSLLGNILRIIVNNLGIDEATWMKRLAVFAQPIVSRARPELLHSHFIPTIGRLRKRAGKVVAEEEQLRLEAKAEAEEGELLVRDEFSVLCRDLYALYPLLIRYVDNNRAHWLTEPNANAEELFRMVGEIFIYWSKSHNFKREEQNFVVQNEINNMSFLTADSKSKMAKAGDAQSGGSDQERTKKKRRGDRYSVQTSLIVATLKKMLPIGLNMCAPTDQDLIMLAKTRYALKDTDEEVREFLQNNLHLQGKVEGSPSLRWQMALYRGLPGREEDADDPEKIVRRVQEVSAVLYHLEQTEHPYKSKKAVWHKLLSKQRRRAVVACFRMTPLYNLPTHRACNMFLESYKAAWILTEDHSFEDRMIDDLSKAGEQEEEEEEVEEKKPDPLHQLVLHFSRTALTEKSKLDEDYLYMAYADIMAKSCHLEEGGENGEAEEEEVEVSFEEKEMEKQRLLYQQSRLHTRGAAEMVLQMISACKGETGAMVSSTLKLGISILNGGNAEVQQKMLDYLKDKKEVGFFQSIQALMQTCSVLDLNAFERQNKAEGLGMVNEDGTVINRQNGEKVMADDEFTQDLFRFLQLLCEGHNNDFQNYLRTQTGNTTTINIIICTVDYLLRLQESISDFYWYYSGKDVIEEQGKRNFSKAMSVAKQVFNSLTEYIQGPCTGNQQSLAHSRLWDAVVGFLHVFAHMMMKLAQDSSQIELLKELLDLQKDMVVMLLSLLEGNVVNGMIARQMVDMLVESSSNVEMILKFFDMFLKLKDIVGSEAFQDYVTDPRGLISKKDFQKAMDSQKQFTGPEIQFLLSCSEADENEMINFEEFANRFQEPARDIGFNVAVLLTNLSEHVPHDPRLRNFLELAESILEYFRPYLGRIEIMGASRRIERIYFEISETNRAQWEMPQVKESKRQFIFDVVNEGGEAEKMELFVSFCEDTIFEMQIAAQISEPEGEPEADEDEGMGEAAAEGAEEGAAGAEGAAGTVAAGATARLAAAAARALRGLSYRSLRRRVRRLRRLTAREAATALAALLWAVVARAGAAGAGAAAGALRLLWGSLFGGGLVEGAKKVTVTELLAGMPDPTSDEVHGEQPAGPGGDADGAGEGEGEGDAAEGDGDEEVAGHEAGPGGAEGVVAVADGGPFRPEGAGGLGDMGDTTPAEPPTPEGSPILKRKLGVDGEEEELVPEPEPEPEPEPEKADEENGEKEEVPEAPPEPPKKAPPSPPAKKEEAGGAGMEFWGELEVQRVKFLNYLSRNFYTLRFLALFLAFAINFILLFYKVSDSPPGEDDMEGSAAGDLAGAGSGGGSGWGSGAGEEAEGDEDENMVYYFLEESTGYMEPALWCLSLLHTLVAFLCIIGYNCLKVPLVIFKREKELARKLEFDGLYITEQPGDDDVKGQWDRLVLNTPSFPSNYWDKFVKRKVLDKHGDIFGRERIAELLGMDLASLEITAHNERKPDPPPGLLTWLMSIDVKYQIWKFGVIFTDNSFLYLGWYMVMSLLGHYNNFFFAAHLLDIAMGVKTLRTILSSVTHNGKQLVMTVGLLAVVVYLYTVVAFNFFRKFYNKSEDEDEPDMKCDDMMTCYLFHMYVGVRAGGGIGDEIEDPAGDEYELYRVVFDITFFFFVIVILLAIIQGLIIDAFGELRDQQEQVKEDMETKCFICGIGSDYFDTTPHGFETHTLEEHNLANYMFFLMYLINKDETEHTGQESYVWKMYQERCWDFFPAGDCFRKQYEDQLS

[2] = target: T2, Sarcoplasmic Reticular Ca^++ -Release Channel (ryanodine receptor) (Oryctolagus cuniculus, UniProt P11716); details: Table II; footnote * J. MED. CHEM. 30 710 (1987); cited from earlier work
T2 construct: skeletal sarcoplasmic reticulum membrane vesicles; from tissue; host or cells: skeletal muscle sarcoplasmic reticulum membrane vesicles
T2 sequence (P11716 whole entry): as above

[3] = target: SR Ca^2+ release channel (junctional SR vesicles from rabbit skeletal muscle) (Oryctolagus cuniculus, UniProt P11716); experiment: biochemical; format: biochemical
Sequence of SR Ca^2+ release channel (junctional SR vesicles from rabbit skeletal muscle) (P11716 whole entry): as above
Description: Briefly, junctional SR vesicles from rabbit skeletal muscle were passively loaded with. ^45 Ca^2+ in the presence and absence of the esters. Ca^2+ -efflux was then initiated by diluting the vesicles 100-fold into a low Ca^2+ -concentration. ^45 Ca^2+ remaining in the vesicles was determined after a 3 sec. efflux period by termination and filtration of the vesicles followed by liquid scintillation counting.

[4] = system: SR Ca^++ release channel/ryanodine receptor (cardiac and skeletal muscle vesicles); format: biochemical
[5] = system: mammalian skeletal muscle; details: cited from earlier work
mammalian cardiac muscle = details: cited from earlier work
[6] = system: skeletal muscle sarcoplasmic reticulum (SR); details: cited from earlier work
[7] = target: T2, Sarcoplasmic Reticular Ca^++ -Release Channel (ryanodine receptor); experiment: biochemical; format: binding; details: vs ryanodine
[8] = 45Ca2+ efflux, skeletal SR vesicles

CC1=C(C(C)C)[C@@H](OC(=O)c2ccc[nH]2)[C@@]2(O)[C@@]3(C)CC(=O)O[C@@]4([C@H](O)[C@@H](C)CC[C@]34O)[C@@]12O [Anhydro-Ryanodine, reference compound]
IC50 ([1]; first embodiment): > 1000 nM | Kd ([1]; first embodiment): > 350 nM | IC50 [2]: > 1000 nM

CC1CCC2(O)C3(C)CC4(O)OC2(C1O)C1(O)C3(O)C(OC(=O)c2ccc[nH]2)C(O)(C(C)C)C41C (stereo not shown) [Ryanodine, ryanodine]
opening (activation) of the SR CRC (in words) [3]: activates the SR CRC at low μM concentrations; also recorded: induces full opening of the SR CRC | concentration inducing deactivation of the channel [3, 8]: higher than 30 μM | concentration of maximal channel activation [3, 8]: about 30 μM | closing of the SR Ca^++ release channel (in words) ([4]; I, NMDS: concentrations as high as 300 μM, ryanodine, dehydroryanodine: >μM): closes or inactivates the SR Ca^++ release channels; also recorded: inhibits Ca^++ flux by inactivating or closing the channel; also recorded: the channel is closed | opening of the SR Ca^++ release channel (in words) ([4]; ryanodine, dehydroryanodine: low concentrations (<μM)): opens the SR Ca^++ release channel/ryanodine receptor | opening of the SR Ca^++ release channel (in words) ([4]; ryanodine, dehydroryanodine: low concentrations (<μM), listed as ryanodine): enhances Ca^++ flux across the SR membrane by opening the SR Ca^++ release channel; also recorded: the Ca^++ release channel is opened | effect on mammalian skeletal muscle (in words) [5]: irreversible contracture | effect on mammalian cardiac muscle (in words) (mammalian cardiac muscle): negative inotropic effect | effect on active uptake of Ca^++ by skeletal muscle SR (in words) [6]: obstruct active uptake

CC1CCC2(O)C3(C)CC4(O)OC2(C1OC(=O)CCN)C1(O)C3(O)C(OC(=O)c2ccc[nH]2)C(O)(C(C)C)C41C (stereo not drawn) [V-II, O10eq -β-Alanyl-Ryanodine]
binding affinity for the ryanodine receptor (in words) [1]: approximately four-fold higher affinity | Kd ([1]; Table I, mean ± standard deviation of replicates): 1 ± 0.3 nM | IC50 ([1]; V-II from direct preparation by hydrogenolysis of IV in presence of triethylamine): 4.3 nM | IC50 ([1]; first embodiment): 2.8 ± 0.8 nM | Kd ([1]; first embodiment): 1 nM | binding affinity to the ryanodine receptor relative to ryanodine (times stronger/greater) ([1]; vs ryanodine): 3.5-4 times and 4 times | relative binding affinity compared with ryanodine (in words) [7]: two to three-fold greater RBA | opening (activation) of the SR CRC (in words) [3]: induces full opening of the SR CRC | EC (maximal activation) ([3]; 3 s, 45Ca2+ efflux, skeletal SR vesicles, read-out: concentration of maximal channel activation): 10 µM | closing (deactivation) of the SR CRC (in words) ([3]; higher concentrations, up to 1 mM for V-II, XXI preliminary): none of the closing action seen with high concentrations of ryanodine | shift of activation curve relative to ryanodine ([3]; towards lower concentrations): three-fold | pharmacological profile (in words) ([3]; vs biphasic profile of ryanodine): altered--unidirectional--pharmacological profile, differing from the biphasic profile of ryanodine | opening of the SR Ca^++ release channel (in words) [4]: exhibits only the ability to enhance Ca^++ flux by opening the SR Ca^++ channel
